Measurements from PubChem BioAssay AID330 (DTP/NCI, 2004).
Several values for one entry are separate records, joined by “and”; a condition that tells them apart may be missing. Equal values may be shown once. Toxic doses and inconclusive results are not listed.

Test system: P388 leukemia ip, CD2F1 mice, survival T/C
Test: NCI In Vivo Anticancer Drug Screen. Data for tumor model P388 Leukemia (intraperitoneal) in CD2F1 (CDF1) mice
Settings: endpoint: median survival time, higher = longer survival
Outline: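 Mice carrying the transplanted tumor received test compound or vehicle. Survival was recorded in each group, and the value is the treated-group measurement divided by that of the vehicle-treated control group.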

[1] = dose: 100.0 mg/kg/injection, schedule: Q01DX001 (ip), vehicle: Klucel (hydroxypropylcellulose) (HPC)
[2] = dose: 50.0 mg/kg/injection, schedule: Q01DX005 (ip), vehicle: Klucel (hydroxypropylcellulose) (HPC)
[3] = dose: 100.0 mg/kg/injection, schedule: Q01DX005 (ip), vehicle: Klucel (hydroxypropylcellulose) (HPC)
[4] = dose: 200.0 mg/kg/injection, schedule: Q01DX005 (ip), vehicle: Klucel (hydroxypropylcellulose) (HPC)
[5] = dose: 50.0 mg/kg/injection, schedule: Q01DX005 (ip), vehicle: saline with Tween-80
[6] = dose: 100.0 mg/kg/injection, schedule: Q01DX005 (ip), vehicle: saline with Tween-80
[7] = dose: 200.0 mg/kg/injection, schedule: Q01DX005 (ip), vehicle: saline with Tween-80
[8] = dose: 50.0 mg/kg/injection, schedule: Q01DX009 (ip), vehicle: saline
[9] = dose: 100.0 mg/kg/injection, schedule: Q01DX009 (ip), vehicle: saline
[10] = dose: 100.0 mg/kg/injection, schedule: Q04DX003 (ip), vehicle: saline
[11] = dose: 200.0 mg/kg/injection, schedule: Q04DX003 (ip), vehicle: saline

In the case of Cc1cc(C)nc(NC(N)=NCCc2ccccc2)n1, the T/C (dose: 12.5 mg/kg/injection, schedule: Q04DX003 (ip), vehicle: saline with Tween-80) is reported as 104 % of control, the T/C (dose: 25.0 mg/kg/injection, schedule: Q04DX003 (ip), vehicle: saline with Tween-80) is reported as 100 % of control and the T/C (dose: 50.0 mg/kg/injection, schedule: Q04DX003 (ip), vehicle: saline with Tween-80) is reported as 100 % of control.

For O=[N+]([O-])c1ccc(N/N=C\c2cccc3c(/C=N/Nc4ccc([N+](=O)[O-])cc4[N+](=O)[O-])c(Cl)n(-c4ccccc4)c23)c([N+](=O)[O-])c1, the T/C (dose: 25.0 mg/kg/injection, schedule: Q01DX001 (ip), vehicle: Klucel (hydroxypropylcellulose) (HPC)) was 102 % of control, the T/C (dose: 50.0 mg/kg/injection, schedule: Q01DX001 (ip), vehicle: Klucel (hydroxypropylcellulose) (HPC)) was 95 % of control and the T/C [1] was 93 % of control.

In the case of Cc1ccc(Nc2cc(C(=O)O)c(Nc3ccc(C)cc3)cc2C(=O)O)cc1, the T/C (dose: 50.0 mg/kg/injection, schedule: Q01DX009 (ip), vehicle: Klucel (hydroxypropylcellulose) (HPC)) is reported as 102 % of control, the T/C (dose: 100.0 mg/kg/injection, schedule: Q01DX009 (ip), vehicle: Klucel (hydroxypropylcellulose) (HPC)) is reported as 111 % of control and the T/C (dose: 200.0 mg/kg/injection, schedule: Q01DX009 (ip), vehicle: Klucel (hydroxypropylcellulose) (HPC)) is reported as 102 % of control.

C=C(OC)C(Nc1cc(OC)c(OC)cc1C(=O)OC1CC(O[C@@H]2C(=O)C(NC(=O)OC)=C3/C(=C\CSSSC)[C@]2(O)C#C/C=C\C#C[C@@H]3OC2OC(C)C(NOC3CC(O)C(SC)C(C)O3)C(O)C2OC2CC(OC)C(NCCC)CO2)OC(C)C1O)OC (some centres undefined) was tested, and the T/C (dose: 1.28 micrograms/kg/injection, schedule: Q01DX005 (ip), vehicle: alcohol) was 163 % of control, the T/C (dose: 2.5 micrograms/kg/injection, schedule: Q01DX005 (ip), vehicle: saline + alcohol) was 88 % of control and the T/C (dose: 2.5 nanograms/kg/injection, schedule: Q01DX005 (ip), vehicle: saline + alcohol) was 120 % of control. For the same molecule, the T/C (dose: 2.56 micrograms/kg/injection, schedule: Q01DX005 (ip), vehicle: alcohol) was 155 % of control and 177 % of control, the T/C (dose: 5.0 nanograms/kg/injection, schedule: Q01DX005 (ip), vehicle: saline + alcohol) was 118 % of control and the T/C (dose: 5.12 micrograms/kg/injection, schedule: Q01DX005 (ip), vehicle: alcohol) was 115 % of control. For the same molecule, the T/C (dose: 10.0 nanograms/kg/injection, schedule: Q01DX005 (ip), vehicle: saline + alcohol) was 123 % of control, the T/C (dose: 320.0 nanograms/kg/injection, schedule: Q01DX005 (ip), vehicle: saline + alcohol) was 164 % of control and the T/C (dose: 640.0 nanograms/kg/injection, schedule: Q01DX005 (ip), vehicle: saline + alcohol) was 174 % of control. For the same molecule, the T/C (dose: 1280.0 nanograms/kg/injection, schedule: Q01DX005 (ip), vehicle: saline + alcohol) was 95 % of control.

For Cc1nc(N)[nH]c(=O)c1CCCNC(=O)c1cccc([N+](=O)[O-])c1, the T/C (dose: 60.0 mg/kg/injection, schedule: Q01DX005 (ip), vehicle: saline with Tween-80) was 94 % of control, the T/C (dose: 120.0 mg/kg/injection, schedule: Q01DX005 (ip), vehicle: saline with Tween-80) was 100 % of control and the T/C (dose: 240.0 mg/kg/injection, schedule: Q01DX005 (ip), vehicle: saline with Tween-80) was 103 % of control.

In the case of COC1=C(OC)C(=O)C(CC=C(C)C)=C(C)C1=O, the T/C (dose: 12.5 mg/kg/injection, schedule: Q01DX009 (ip), vehicle: saline + alcohol) is reported as 118 % of control, the T/C (dose: 25.0 mg/kg/injection, schedule: Q01DX009 (ip), vehicle: saline + alcohol) is reported as 104 % of control and 110 % of control and the T/C (dose: 50.0 mg/kg/injection, schedule: Q01DX009 (ip), vehicle: saline + alcohol) is reported as 103 % of control and 105 % of control. The T/C (dose: 100.0 mg/kg/injection, schedule: Q01DX009 (ip), vehicle: saline + alcohol) was 151 % of control.

For COC(=O)C1=C(O)/C(=C\c2ccccc2)NC1=O, the T/C [2] was 101 % of control, the T/C [3] was 108 % of control and the T/C [4] was 104 % of control.

For CC(NC(CCCN=C(N)N)C(=O)O)C(=O)O (centres undefined), the T/C (dose: 60.0 mg/kg/injection, schedule: Q01DX005 (ip), vehicle: saline) was 92 % of control, the T/C (dose: 120.0 mg/kg/injection, schedule: Q01DX005 (ip), vehicle: saline) was 100 % of control and the T/C (dose: 240.0 mg/kg/injection, schedule: Q01DX005 (ip), vehicle: saline) was 100 % of control.

For COc1ccc(C(=O)Cc2cc3c(cc2Br)OCO3)cc1OC, the T/C [1] was 101 % of control, the T/C (dose: 200.0 mg/kg/injection, schedule: Q01DX001 (ip), vehicle: Klucel (hydroxypropylcellulose) (HPC)) was 105 % of control and the T/C (dose: 400.0 mg/kg/injection, schedule: Q01DX001 (ip), vehicle: Klucel (hydroxypropylcellulose) (HPC)) was 99 % of control.

CCOC(=O)CC1CCCN1Sc1ccc([N+](=O)[O-])cc1[N+](=O)[O-] (centres undefined) was tested, and the T/C [5] was 100 % of control, the T/C [6] was 101 % of control and the T/C [7] was 100 % of control.

With COc1cc(C2OCCO2)cc(OC)c1O the T/C [8] was 97 % of control, the T/C [9] was 105 % of control and the T/C (dose: 200.0 mg/kg/injection, schedule: Q01DX009 (ip), vehicle: saline) was 101 % of control.

CCOC(=O)C1=C(/C=C/c2cccc(Cl)c2)O/C(=C/c2cccc(Cl)c2)C1=O was tested, and the T/C [5] was 87 % of control, the T/C [6] was 96 % of control and the T/C [7] was 106 % of control.

CNc1nc(SC)nc2c1ncn2C1CCCO1 (centres undefined) was tested, and the T/C (dose: 100.0 mg/kg/injection, schedule: Q04DX002 (ip), vehicle: saline with Tween-80) was 98 % of control, the T/C (dose: 200.0 mg/kg/injection, schedule: Q04DX002 (ip), vehicle: saline with Tween-80) was 95 % of control and the T/C (dose: 400.0 mg/kg/injection, schedule: Q04DX002 (ip), vehicle: saline with Tween-80) was 95 % of control.

With N#CC1CNC(N)NC1N (centres undefined) the T/C (dose: 60.0 mg/kg/injection, schedule: Q01DX005 (ip), vehicle: Klucel (hydroxypropylcellulose) (HPC)) was 99 % of control, the T/C (dose: 120.0 mg/kg/injection, schedule: Q01DX005 (ip), vehicle: Klucel (hydroxypropylcellulose) (HPC)) was 91 % of control and the T/C (dose: 240.0 mg/kg/injection, schedule: Q01DX005 (ip), vehicle: Klucel (hydroxypropylcellulose) (HPC)) was 90 % of control.

With O=C1C=C(C2OC(CI)C(O)C2O)C(=O)N1 (centres undefined) the T/C (dose: 1.56 mg/kg/injection, schedule: Q01DX009 (ip), vehicle: water) was 113 % of control, the T/C (dose: 3.13 mg/kg/injection, schedule: Q01DX009 (ip), vehicle: water) was 112 % of control and the T/C (dose: 6.25 mg/kg/injection, schedule: Q01DX009 (ip), vehicle: water) was 118 % of control. For the same molecule, the T/C (dose: 12.5 mg/kg/injection, schedule: Q01DX009 (ip), vehicle: water) was 109 % of control and the T/C (dose: 25.0 mg/kg/injection, schedule: Q01DX009 (ip), vehicle: water) was 118 % of control.

For O=C1CC(C(Cl)(Cl)Cl)O1 (centres undefined), the T/C (dose: 25.0 mg/kg/injection, schedule: Q04DX003 (ip), vehicle: saline) was 97 % of control, the T/C (dose: 50.0 mg/kg/injection, schedule: Q04DX003 (ip), vehicle: saline) was 97 % of control and the T/C [10] was 99 % of control. For the same molecule, the T/C [11] was 99 % of control.

In the case of CCCN(CCC)CN(CCC)CCC, the T/C [8] is reported as 106 % of control and the T/C [9] is reported as 105 % of control.

CN1C2CCC1C(O)C(c1ccc(Cl)cc1)C2 (centres undefined) was tested, and the T/C (dose: 25.0 mg/kg/injection, schedule: Q01DX005 (ip), vehicle: Klucel (hydroxypropylcellulose) (HPC)) was 100 % of control, the T/C [2] was 100 % of control and the T/C [3] was 91 % of control.

In the case of O=c1c2c([nH]c3c1ccc1c(=O)c4c([nH]c13)CCCC4)CCCC2, the T/C (dose: 50.0 mg/kg/injection, schedule: Q01DX009 (ip), vehicle: saline with Tween-80) is reported as 98 % of control, the T/C (dose: 100.0 mg/kg/injection, schedule: Q01DX009 (ip), vehicle: saline with Tween-80) is reported as 96 % of control and the T/C (dose: 200.0 mg/kg/injection, schedule: Q01DX009 (ip), vehicle: saline with Tween-80) is reported as 94 % of control.

For Cn1nnc(C(=O)O)n1, the T/C (dose: 50.0 mg/kg/injection, schedule: Q01DX001 (ip), vehicle: saline) was 100 % of control, the T/C (dose: 100.0 mg/kg/injection, schedule: Q01DX001 (ip), vehicle: saline) was 100 % of control and the T/C [10] was 103 % of control. For the same molecule, the T/C (dose: 200.0 mg/kg/injection, schedule: Q01DX001 (ip), vehicle: saline) was 101 % of control, the T/C [11] was 103 % of control and the T/C (dose: 400.0 mg/kg/injection, schedule: Q04DX003 (ip), vehicle: saline) was 100 % of control.

In the case of C[N+]1(CCC(/C=C/c2ccc([N+](=O)[O-])cc2)=N\O)CCOCC1, the T/C (dose: 7.5 mg/kg/injection, schedule: Q01DX005 (ip), vehicle: saline with Tween-80) is reported as 107 % of control, the T/C (dose: 15.0 mg/kg/injection, schedule: Q01DX005 (ip), vehicle: saline with Tween-80) is reported as 93 % of control and the T/C (dose: 30.0 mg/kg/injection, schedule: Q01DX005 (ip), vehicle: saline with Tween-80) is reported as 100 % of control.

With COc1ccc2sc(-c3ccccc3)cc(=O)c2c1 the T/C [2] was 100 % of control, the T/C [3] was 101 % of control and the T/C [4] was 101 % of control.
